Assay results published in patent publication US7776888B2, “Herbicides” (Syngenta Crop Protection, Inc., priority 2002, dated 2010).

How the values were obtained:
Type in all cases: in vivo
Amaranthus [1] = experiment: Pre-emergence herbicidal action (Example B1); conditions: 250 gr/ha, sprayed immediately after sowing, evaluated after 3 weeks; scale of ten ratings 10=total damage, 0=no action
Description: (§1) Monocotyledonous and dicotyledonous test plants are sown in standard soil in plastic pots. Immediately after sowing, the test compounds, in the form of an aqueous suspension (prepared from a 25% wettable powder (Example F3, b) according to WO 97/34485) or in the form of an emulsion (prepared from a 25% emulsifiable concentrate (Example F1, c)), are applied by spraying in a concentration corresponding to 125 g or 250 g of active ingredient/ha (500 liters of water/ha). The test plants are then grown in a greenhouse under optimum conditions. After a test duration of 3 weeks, the test is evaluated in accordance with a scale of ten ratings (10=total damage, 0=no action). Ratings of from 10 to 6 (especially from 10 to 8) indicate good to very good herbicidal action.

Echinochloa = experiment: Pre-emergence herbicidal action (Example B1); conditions: 250 gr/ha, sprayed immediately after sowing, evaluated after 3 weeks; scale of ten ratings 10=total damage, 0=no action
Description: as §1

Chenopodium [2] = experiment: Pre-emergence herbicidal action (Example B1); conditions: 250 gr/ha, sprayed immediately after sowing, evaluated after 3 weeks; scale of ten ratings 10=total damage, 0=no action
Description: as §1

Kochia = experiment: Pre-emergence herbicidal action (Example B1); conditions: 250 gr/ha, sprayed immediately after sowing, evaluated after 3 weeks; scale of ten ratings 10=total damage, 0=no action
Description: as §1

Panicum = experiment: Pre-emergence herbicidal action (Example B1); conditions: 250 gr/ha, sprayed immediately after sowing, evaluated after 3 weeks; scale of ten ratings 10=total damage, 0=no action
Description: as §1

Abutilon = experiment: Pre-emergence herbicidal action (Example B1); conditions: 250 gr/ha, sprayed immediately after sowing, evaluated after 3 weeks; scale of ten ratings 10=total damage, 0=no action
Description: as §1

Ipomea = experiment: Post-emergence herbicidal action (Example B2); conditions: 250 gr/ha, sprayed at 4- to 6-leaf stage, evaluated after about 18 days; scale 10=total damage, 0=no action
Description: (§2) In a greenhouse, monocotyledonous and dicotyledonous test plants are grown in standard soil in plastic pots and at the 4- to 6-leaf stage are sprayed with an aqueous suspension of the test compounds of formula I prepared from a 25% wettable powder (Example F3, b) according to WO 97/34485) or with an emulsion of the test compounds of formula I prepared from a 25% emulsifiable concentrate (Example F1, c) according to WO 97/34485), in a concentration corresponding to 125 g or 250 g of active ingredient/ha (500 liters of water/ha). The test plants are then grown on in a greenhouse under optimum conditions. After a test duration of about 18 days, the test is evaluated in accordance with a scale of ten ratings (10=total damage, 0=no action). Ratings of from 10 to 6 (especially from 10 to 7) indicate good to very good herbicidal action.

Amaranthus [3] = experiment: Post-emergence herbicidal action (Example B2); conditions: 250 gr/ha, sprayed at 4- to 6-leaf stage, evaluated after about 18 days; scale 10=total damage, 0=no action
Description: as §2

Chenopodium [4] = experiment: Post-emergence herbicidal action (Example B2); conditions: 250 gr/ha, sprayed at 4- to 6-leaf stage, evaluated after about 18 days; scale 10=total damage, 0=no action
Description: as §2

Stellaria = experiment: Post-emergence herbicidal action (Example B2); conditions: 250 gr/ha, sprayed at 4- to 6-leaf stage, evaluated after about 18 days; scale 10=total damage, 0=no action
Description: as §2

Brachiaria = experiment: Comparison test with prior art compound, post-emergence herbicidal action (Example B3); conditions: 15 gr/ha, rating scale 10=total damage, 0=no action
Description: (§3) […] The test plants are then grown on in a greenhouse under optimum conditions. After a test duration of about 18 days, the test is evaluated in accordance with a scale of ten ratings (10=total damage, 0=no action). Ratings of from 10 to 6 (especially from 10 to 7) indicate good to very good herbicidal action. […] Examples of the good herbicidal action of the compounds are given in Table B2: The post-emergence herbicidal action of compound No. 1.0411 according to the invention is compared with compound “A” from WO 01/94339:

Sinapis = experiment: as above; conditions: 15 gr/ha, rating scale 10=total damage, 0=no action
Description: as §3

Sida = experiment: as above; conditions: 15 gr/ha, rating scale 10=total damage, 0=no action
Description: as §3

Rottboelia = experiment: as above; conditions: 15 gr/ha, rating scale 10=total damage, 0=no action
Description: as §3

Galium = experiment: as above; conditions: 15 gr/ha, rating scale 10=total damage, 0=no action
Description: as §3

Polygonum = experiment: as above; conditions: 15 gr/ha, rating scale 10=total damage, 0=no action
Description: as §3

weeds = experiment: Comparison test post-emergence (Example B3), overall; conditions: rate of application of 15 g/ha
Description: This enhanced action was not to be expected in view of the structural similarity of the compounds.

SMILES | Pre-emergence herbicidal action: Amaranthus (Amaranthus [1]) | Pre-emergence herbicidal action: Echinochloa (Echinochloa) | Pre-emergence herbicidal action: Chenopodium (Chenopodium [2]) | Pre-emergence herbicidal action: Kochia (Kochia) | Pre-emergence herbicidal action: Panicum (Panicum) | Pre-emergence herbicidal action: Abutilon (Abutilon) | Post-emergence herbicidal action: Ipomea (Ipomea) | Post-emergence herbicidal action: Amaranthus (Amaranthus [3]) | Post-emergence herbicidal action: Chenopodium (Chenopodium [4]) | Post-emergence herbicidal action: Stellaria (Stellaria) | Post-emergence action: Brachiaria (Brachiaria) | Post-emergence action: Sinapis (Sinapis) | Post-emergence action: Sida (Sida) | Post-emergence action: Rottboelia (Rottboelia) | Post-emergence action: Galium (Galium) | Post-emergence action: Polygonum (Polygonum) | herbicidal action on the weeds compared with compound A (in words) (weeds)
COCCOCc1nc(C(F)(F)F)ccc1C(=O)C1=C(O)C2(C)C=CC(C)(O2)C1=O (stereo not shown) [1.0301] | 8 | 7 | 9 | 8 | 7 | 7 | 8 | 8 | 8 | 8 |  |  |  |  |  |  | 
COCCOCc1nc(C(F)(F)F)ccc1C(=O)C1=C(O)C2C=CC(C2)C1=O (stereo not shown) [1.0411] | 10 | 9 | 10 | 10 | 10 | 10 | 10 | 9 | 10 | 9 | 10 | 8 | 8 | 3 | 6 | 8 | considerably better herbicidal action
Cc1nc(C(F)(F)F)ccc1C(=O)C1=C(O)C2C=CC(C1=O)C21CC1 (stereo not shown) [1.1153] |  |  |  |  |  |  | 8 | 7 | 8 | 10 |  |  |  |  |  |  | 
COCCOCc1nc(C(F)(F)F)ccc1C(=O)C1C(=O)C2CCC(C2)C1=O (stereo not shown) [A, reference compound] |  |  |  |  |  |  |  |  |  |  | 4 | 6 | 7 | 0 | 5 | 5 | 
